# Measured values published in ChEMBL document CHEMBL5030545, “Discovery of clinical candidate Sivopixant (S-600918): Lead optimization of dioxotriazine derivatives as selective P2X3 receptor antagonists” (Bioorg Med Chem Lett, 2021).
# pIC50: −log10 of the molar value.
# Key:
# [1] = Oral bioavailability in rat at 1 mg/kg administered as cassette dose; format: ADME, organism-based; conditions: in vivo
# Rattus norvegicus = experiment: Analgesic activity in rat model of partial sciatic nerve ligation-induced neuropathic pain assessed as reversal of allodynia at 3 mg/kg, po measured after 3 hrs relative to control; format: functional
# [2] = Protein binding in rat plasma assessed as unbound fraction at 1 mg/kg administered as cassette dose; format: ADME, organism-based
# [3] = Free plasma concentration in rat plasma at 1 mg/kg administered as cassette dose; format: ADME, organism-based; conditions: in vivo
# [4] = Ratio of plasma concentration in rat measured after 3 hrs to IC50 of P2X3 (unknown origin); format: ADME; conditions: in vivo
# [5] = Ratio of free plasma concentration in rat measured after 3 hrs to IC50 of P2X3 (unknown origin); format: ADME
# P2X purinoceptor 3 = biological target: T1, P2X purinoceptor 3 (Homo sapiens, UniProt P56373); experiment: Antagonist activity at P2X3 receptor (unknown origin)
# T1 sequence (P56373 whole entry): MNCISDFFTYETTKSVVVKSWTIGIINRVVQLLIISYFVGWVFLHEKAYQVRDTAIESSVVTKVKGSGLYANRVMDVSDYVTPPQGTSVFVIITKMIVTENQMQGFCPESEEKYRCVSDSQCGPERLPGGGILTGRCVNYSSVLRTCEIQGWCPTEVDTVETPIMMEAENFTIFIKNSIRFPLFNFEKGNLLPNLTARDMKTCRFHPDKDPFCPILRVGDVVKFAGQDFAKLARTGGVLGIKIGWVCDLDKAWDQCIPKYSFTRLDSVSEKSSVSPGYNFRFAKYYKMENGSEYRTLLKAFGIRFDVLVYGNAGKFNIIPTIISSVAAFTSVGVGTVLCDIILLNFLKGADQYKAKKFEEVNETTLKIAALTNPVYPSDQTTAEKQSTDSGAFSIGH
bioavailability [1],fraction unbound [2],Cp(f) [3],Ratio [4],Ratio [5],pIC50 (P2X purinoceptor 3),SMILES,Activity (Rattus norvegicus)
88.8%,0.068,827 nM,42.8,2.91,,CC(C)Oc1ccc(/N=c2\[nH]c(=O)n(C[C@H](C)C(=O)O)c(=O)n2Cc2ccc(Cl)cc2)cc1,2%
56.5%,0.018,330 nM,56.2,1.02,8.24,C[C@@H](Cn1c(=O)[nH]/c(=N\c2ccc(Oc3cnccn3)cc2)n(Cc2ccc(Cl)cc2)c1=O)C(=O)O,
45.6%,0.021,643 nM,37.6,0.79,,C[C@@H](Cn1c(=O)[nH]/c(=N\c2ccc(OCC3CC3)cc2)n(Cc2ccc(Cl)cc2)c1=O)C(=O)O,
,,,,,8.07,C[C@@H](Cn1c(=O)[nH]/c(=N\c2ccc(Oc3cccnc3)cc2)n(Cc2ccc(Cl)cc2)c1=O)C(=O)O,
82.4%,0.011,473 nM,,,,C[C@@H](Cn1c(=O)[nH]/c(=N\c2ccc(Oc3ccc(F)cn3)cc2)n(Cc2ccc(Cl)cc2)c1=O)C(=O)O,
48.7%,0.025,253 nM,11.5,0.29,,CC(C)COc1ccc(/N=c2\[nH]c(=O)n(C[C@H](C)C(=O)O)c(=O)n2Cc2ccc(Cl)cc2)cc1,
60%,0.007,456 nM,,,,C[C@@H](Cn1c(=O)[nH]/c(=N\c2ccc(Oc3cccc(F)n3)cc2)n(Cc2ccc(Cl)cc2)c1=O)C(=O)O,
,,,,,8.28,C[C@@H](Cn1c(=O)[nH]/c(=N\c2ccc(Oc3ccncc3)cc2)n(Cc2ccc(Cl)cc2)c1=O)C(=O)O,
40.2%,0.004,240 nM,48.9,0.2,8.31,CC.C[C@@H](Cn1c(=O)[nH]/c(=N\c2ccc(Oc3cc(F)ccn3)cc2)n(Cc2ccc(Cl)cc2)c1=O)C(=O)O,
41.4%,0.006,319 nM,,,,C[C@@H](Cn1c(=O)[nH]/c(=N\c2ccc(Oc3nccs3)cc2)n(Cc2ccc(Cl)cc2)c1=O)C(=O)O,
74.3%,0.02,529 nM,,,,C[C@@H](Cn1c(=O)[nH]/c(=N\c2ccc(Oc3cncc(F)c3)cc2)n(Cc2ccc(Cl)cc2)c1=O)C(=O)O,
30.2%,0.014,64 nM,8.3,0.12,8.11,C[C@@H](Cn1c(=O)[nH]/c(=N\c2ccc(Oc3cccnn3)cc2)n(Cc2ccc(Cl)cc2)c1=O)C(=O)O,

# More lines, now with the values behind:
SMILES,bioavailability [1],fraction unbound [2],Cp(f) [3],Ratio [4],Ratio [5],pIC50 (P2X purinoceptor 3),Activity (Rattus norvegicus)
Cc1cc(/N=c2\[nH]c(=O)n(C[C@H](C)C(=O)O)c(=O)n2Cc2ccc(Cl)cc2)ccc1OC(C)C,102%,0.02,924 nM,57.8,1.16,,13%
CC(C)Oc1ccc(/N=c2\[nH]c(=O)n(C[C@H](C)C(=O)O)c(=O)n2Cc2ccc(Cl)cc2)cc1Cl,82.4%,0.003,1537 nM,171.8,0.52,,26%
CC(C)Oc1ccc(Nc2nc(=O)n(CCO)c(=O)n2Cc2ccc(Cl)cc2)cc1Cl,48.1%,0.001,3095 nM,204.9,0.2,,
CC(C)Oc1ccc(/N=c2\[nH]c(=O)n(C[C@H](C)C(=O)O)c(=O)n2Cc2ccc(Cl)cc2)cc1F,96%,0.009,1126 nM,145.2,1.31,8.11,23%
CC(C)Oc1ccc(Nc2nc(=O)n(CC(CO)CO)c(=O)n2Cc2ccc(Cl)cc2)cc1Cl,54.8%,0.003,597 nM,89.2,0.27,8.17,
Cc1ccc(Cn2c(=O)n(C[C@H](C)C(=O)O)c(=O)[nH]/c2=N\c2ccc(OC(C)C)c(Cl)c2)cc1,73.1%,0.014,692 nM,98.9,1.38,,3%
CC(C)Oc1ccc(/N=c2\[nH]c(=O)n(CCCC(=O)O)c(=O)n2Cc2ccc(Cl)cc2)cc1Cl,43.2%,0.002,1600 nM,119.4,0.24,,
CC(C)Oc1ccc(Nc2nc(=O)n(CCCO)c(=O)n2Cc2ccc(Cl)cc2)cc1Cl,36.2%,0.003,711 nM,103.5,0.31,8.16,
CC(C)Oc1ccc(/N=c2\[nH]c(=O)n(CC(C)(C)C(=O)O)c(=O)n2Cc2ccc(Cl)cc2)cc1Cl,85.3%,0.003,485 nM,72.4,0.22,8.17,
Cc1ccc(Cn2c(=O)n(CC(C)(C)C(=O)O)c(=O)[nH]/c2=N\c2ccc(OC(C)C)c(Cl)c2)cc1,30.7%,0.01,139 nM,14.2,0.14,8.01,
CC(C)Oc1ccc(Nc2nc(=O)n(CCC(=O)O)c(=O)n2Cc2ccc(Cl)cc2)cc1Cl,71.2%,0.003,1267 nM,,,,6%
Cc1ccc(Cn2c(=O)n(CCCC(=O)O)c(=O)[nH]/c2=N\c2ccc(OC(C)C)c(Cl)c2)cc1,108%,0.002,3655 nM,294.8,0.59,,20%
CC(C)Oc1ccc(/N=c2\[nH]c(=O)n(C[C@@H](C)C(=O)O)c(=O)n2Cc2ccc(Cl)cc2)cc1Cl,108%,0.002,1001 nM,62.2,0.12,,
C[C@@H](Cn1c(=O)[nH]/c(=N\c2ccc(OC3CCC3)cc2)n(Cc2ccc(Cl)cc2)c1=O)C(=O)O,54.3%,0.015,462 nM,30.4,0.46,,
CC(C)Oc1ccc(/N=c2\[nH]c(=O)n(C[C@@H](O)CO)c(=O)n2Cc2ccc(Cl)cc2)cc1Cl,63%,0.001,1627 nM,284.5,0.28,8.24,
CC(C)Oc1ccc(/N=c2\[nH]c(=O)n(C[C@H](O)CO)c(=O)n2Cc2ccc(Cl)cc2)cc1Cl,,,,,,7.98,
